Experimental data from patent publication US20230085307A1, “PYRIDAZINONE COMPOUND AND HERBICIDE” (NISSAN CHEMICAL CORPORATION, priority 2019, published 2023).

Legend:
barnyard grass [1] = assay: Test Example 3: herbicidal effect by foliage application, Wagner pot (Table 18, symbol H); type: in vivo, barnyard grass (Echinochloa crus-galli); details: 320 g/ha
Method in brief: (§1)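 Plants were sown in alluvial soil held under 0.1–0.5 cm standing water and grown 14 days in a greenhouse at 25–30 °C. An emulsifiable formulation, water-diluted to the set dose, was then sprayed onto the foliage, and effects were scored three weeks later using previously defined criteria.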

Chinese sprangletop = assay: Test Example 3: herbicidal effect by foliage application, Wagner pot (Table 18, symbol D); type: in vivo, chinese sprangletop (Leptochloa chinensis); details: 320 g/ha
Method in brief: as §1

rice flat sedge = assay: Test Example 3: herbicidal effect by foliage application, Wagner pot (Table 18, symbol E); type: in vivo, rice flat sedge (Cyperus iria); details: 320 g/ha
Method in brief: as §1

southern crabgrass [2] = assay: Test Example 4: herbicidal effect by soil treatment (Table 19, symbol F); type: in vivo, southern crabgrass (Digitaria ciliaris); details: amount of applied herbicide 320 g/ha
Method in brief: (§2)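 Emulsion of test compound, water-diluted to predetermined amount, sprayed on soil after sowing (seed depth ~1.5 cm, sterilized diluvial soil). Greenhouse, 25–30° C. Effect graded at three weeks post-spray.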

green foxtail [3] = assay: Test Example 4: herbicidal effect by soil treatment (Table 19, symbol G); type: in vivo, green foxtail (Setaria viridis); details: amount of applied herbicide 320 g/ha
Method in brief: as §2

barnyard grass [4] = assay: Test Example 4: herbicidal effect by soil treatment (Table 19, symbol H); type: in vivo, barnyard grass (Echinochloa crus-galli); details: amount of applied herbicide 320 g/ha
Method in brief: as §2

wild oat [5] = assay: Test Example 4: herbicidal effect by soil treatment (Table 19, symbol I); type: in vivo, wild oat (Avena fatua); details: amount of applied herbicide 320 g/ha
Method in brief: as §2

blackgrass [6] = assay: Test Example 4: herbicidal effect by soil treatment (Table 19, symbol J); type: in vivo, blackgrass (Alopecurus myosuroides); details: amount of applied herbicide 320 g/ha
Method in brief: as §2

Italian ryegrass [7] = assay: Test Example 4: herbicidal effect by soil treatment (Table 19, symbol K); type: in vivo, Italian ryegrass (Lolium multiflorum); details: amount of applied herbicide 320 g/ha
Method in brief: as §2

windgrass [8] = assay: Test Example 4: herbicidal effect by soil treatment (Table 19, symbol L); type: in vivo, windgrass (Apera spica-venti); details: amount of applied herbicide 320 g/ha
Method in brief: as §2

velvetleaf [9] = assay: Test Example 4: herbicidal effect by soil treatment (Table 19, symbol M); type: in vivo, velvetleaf (Abutilon theophrasti); details: amount of applied herbicide 320 g/ha
Method in brief: as §2

redroot pigweed [10] = assay: Test Example 4: herbicidal effect by soil treatment (Table 19, symbol N); type: in vivo, redroot pigweed (Amaranthus retroflexus); details: amount of applied herbicide 320 g/ha
Method in brief: as §2

lambsquarters [11] = assay: Test Example 4: herbicidal effect by soil treatment (Table 19, symbol O); type: in vivo, lambsquarters (Chenopodium album); details: amount of applied herbicide 320 g/ha
Method in brief: as §2

chickweed [12] = assay: Test Example 4: herbicidal effect by soil treatment (Table 19, symbol P); type: in vivo, common chickweed (Stellaria media); details: amount of applied herbicide 320 g/ha
Method in brief: as §2

persian speedwell [13] = assay: Test Example 4: herbicidal effect by soil treatment (Table 19, symbol R); type: in vivo, Persian speedwell (Veronica persica); details: amount of applied herbicide 320 g/ha
Method in brief: as §2

southern crabgrass [14] = assay: Test Example 5: herbicidal effect by foliage application, plastic box (Table 20, symbol F); type: in vivo, southern crabgrass (Digitaria ciliaris); details: 320 g/ha
Method in brief: (§3)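 Post-emergence foliar test in sterilized diluvial soil. Compound applied as water-diluted emulsion at a predetermined rate to 14-day-old plants; evaluation at three weeks.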

green foxtail [15] = assay: Test Example 5: herbicidal effect by foliage application, plastic box (Table 20, symbol G); type: in vivo, green foxtail (Setaria viridis); details: 320 g/ha
Method in brief: as §3

barnyard grass [16] = assay: Test Example 5: herbicidal effect by foliage application, plastic box (Table 20, symbol H); type: in vivo, barnyard grass (Echinochloa crus-galli); details: 320 g/ha
Method in brief: as §3

wild oat [17] = assay: Test Example 5: herbicidal effect by foliage application, plastic box (Table 20, symbol I); type: in vivo, wild oat (Avena fatua); details: 320 g/ha
Method in brief: as §3

blackgrass [18] = assay: Test Example 5: herbicidal effect by foliage application, plastic box (Table 20, symbol J); type: in vivo, blackgrass (Alopecurus myosuroides); details: 320 g/ha
Method in brief: as §3

Italian ryegrass [19] = assay: Test Example 5: herbicidal effect by foliage application, plastic box (Table 20, symbol K); type: in vivo, Italian ryegrass (Lolium multiflorum); details: 320 g/ha
Method in brief: as §3

windgrass [20] = assay: Test Example 5: herbicidal effect by foliage application, plastic box (Table 20, symbol L); type: in vivo, windgrass (Apera spica-venti); details: 320 g/ha
Method in brief: as §3

velvetleaf [21] = assay: Test Example 5: herbicidal effect by foliage application, plastic box (Table 20, symbol M); type: in vivo, velvetleaf (Abutilon theophrasti); details: 320 g/ha
Method in brief: as §3

redroot pigweed [22] = assay: Test Example 5: herbicidal effect by foliage application, plastic box (Table 20, symbol N); type: in vivo, redroot pigweed (Amaranthus retroflexus); details: 320 g/ha
Method in brief: as §3

lambsquarters [23] = assay: Test Example 5: herbicidal effect by foliage application, plastic box (Table 20, symbol O); type: in vivo, lambsquarters (Chenopodium album); details: 320 g/ha
Method in brief: as §3

chickweed [24] = assay: Test Example 5: herbicidal effect by foliage application, plastic box (Table 20, symbol P); type: in vivo, common chickweed (Stellaria media); details: 320 g/ha
Method in brief: as §3

persian speedwell [25] = assay: Test Example 5: herbicidal effect by foliage application, plastic box (Table 20, symbol R); type: in vivo, Persian speedwell (Veronica persica); details: 320 g/ha
Method in brief: as §3

[26] = foliage application, three weeks after application
[27] = foliage application after 14-day growth, evaluated three weeks after application

Compound | herbicidal effect on barnyard grass (H) (barnyard grass [1]) | herbicidal effect on Chinese sprangletop (D) (Chinese sprangletop) | herbicidal effect on rice flat sedge (E) (rice flat sedge) | Herbicidal effect by soil treatment, F: southern crabgrass (southern crabgrass [2]) | Herbicidal effect by soil treatment, G: green foxtail (green foxtail [3]) | Herbicidal effect by soil treatment, H: barnyard grass (barnyard grass [4]) | Herbicidal effect by soil treatment, I: wild oat (wild oat [5]) | Herbicidal effect by soil treatment, J: blackgrass (blackgrass [6]) | Herbicidal effect by soil treatment, K: Italian ryegrass (Italian ryegrass [7]) | Herbicidal effect by soil treatment, L: windgrass (windgrass [8]) | Herbicidal effect by soil treatment, M: velvetleaf (velvetleaf [9]) | Herbicidal effect by soil treatment, N: redroot pigweed (redroot pigweed [10]) | Herbicidal effect by soil treatment, O: lambsquarters (lambsquarters [11]) | Herbicidal effect by soil treatment, P: chickweed (chickweed [12]) | Herbicidal effect by soil treatment, R: persian speedwell (persian speedwell [13]) | also measured
Cc1nn(C)c(=O)c(-c2c(-c3ccc(C(F)(F)F)cc3)sc3cc(F)ccc23)c1O [3-139] | 4 (Herbicidal rate of 70% or more and less than 90%) | 4 (Herbicidal rate of 70% or more and less than 90%) | 4 (Herbicidal rate of 70% or more and less than 90%) | 0 (Herbicidal rate of 5% or less (almost no effect)) | 0 (Herbicidal rate of 5% or less (almost no effect)) | 0 (Herbicidal rate of 5% or less (almost no effect)) | 0 (Herbicidal rate of 5% or less (almost no effect)) | 0 (Herbicidal rate of 5% or less (almost no effect)) | 0 (Herbicidal rate of 5% or less (almost no effect)) | 0 (Herbicidal rate of 5% or less (almost no effect)) | 2 (Herbicidal rate of 20% or more and less than 40%) | 4 (Herbicidal rate of 70% or more and less than 90%) | 3 (Herbicidal rate of 40% or more and less than 70%) | 0 (Herbicidal rate of 5% or less (almost no effect)) | 1 (Herbicidal rate of 5% or more and less than 20%) | F: southern crabgrass, herbicidal effect grade (southern crabgrass [14]; [26]): 2 (Herbicidal rate of 20% or more and less than 40%); G: green foxtail, herbicidal effect grade (green foxtail [15]; [26]): 4 (Herbicidal rate of 70% or more and less than 90%); H: barnyard grass, herbicidal effect grade (barnyard grass [16]; [26]): 5 (Herbicidal rate of 90% or more (almost completely withered)); I: wild oat, herbicidal effect grade (wild oat [17]; [26]): 3 (Herbicidal rate of 40% or more and less than 70%); J: blackgrass, herbicidal effect grade (blackgrass [18]; [26]): 0 (Herbicidal rate of 5% or less (almost no effect)); K: Italian ryegrass, herbicidal effect grade (Italian ryegrass [19]; [26]): 5 (Herbicidal rate of 90% or more (almost completely withered)); L: windgrass, herbicidal effect grade (windgrass [20]; [26]): 5 (Herbicidal rate of 90% or more (almost completely withered)); M: velvetleaf, herbicidal effect grade (velvetleaf [21]; [26]): 5 (Herbicidal rate of 90% or more (almost completely withered)); N: redroot pigweed, herbicidal effect grade (redroot pigweed [22]; [26]): 3 (Herbicidal rate of 40% or more and less than 70%); O: lambsquarters, herbicidal effect grade (lambsquarters [23]; [26]): 5 (Herbicidal rate of 90% or more (almost completely withered)); P: chickweed, herbicidal effect grade (chickweed [24]; [26]): 5 (Herbicidal rate of 90% or more (almost completely withered)); R: persian speedwell, herbicidal effect grade (persian speedwell [25]; [26]): 5 (Herbicidal rate of 90% or more (almost completely withered))
Cc1nn(C)c(=O)c(-c2c(-c3ccc(OC(F)(F)F)cc3)sc3cc(Cl)ccc23)c1O [3-149] | 4 (Herbicidal rate of 70% or more and less than 90%) | 5 (Herbicidal rate of 90% or more (almost completely withered)) | 4 (Herbicidal rate of 70% or more and less than 90%) | 0 (Herbicidal rate of 5% or less (almost no effect)) | 0 (Herbicidal rate of 5% or less (almost no effect)) | 0 (Herbicidal rate of 5% or less (almost no effect)) | 0 (Herbicidal rate of 5% or less (almost no effect)) | 0 (Herbicidal rate of 5% or less (almost no effect)) | 0 (Herbicidal rate of 5% or less (almost no effect)) | 0 (Herbicidal rate of 5% or less (almost no effect)) | 1 (Herbicidal rate of 5% or more and less than 20%) | 3 (Herbicidal rate of 40% or more and less than 70%) | 0 (Herbicidal rate of 5% or less (almost no effect)) | 0 (Herbicidal rate of 5% or less (almost no effect)) | 0 (Herbicidal rate of 5% or less (almost no effect)) | herbicidal effect on F: southern crabgrass (evaluation grade 0-5) (southern crabgrass [14]; [27]): 3 (Herbicidal rate of 40% or more and less than 70%); herbicidal effect on G: green foxtail (evaluation grade 0-5) (green foxtail [15]; [27]): 4 (Herbicidal rate of 70% or more and less than 90%); herbicidal effect on H: barnyard grass (evaluation grade 0-5) (barnyard grass [16]; [27]): 3 (Herbicidal rate of 40% or more and less than 70%); herbicidal effect on I: wild oat (evaluation grade 0-5) (wild oat [17]; [27]): 0 (Herbicidal rate of 5% or less (almost no effect)); herbicidal effect on J: blackgrass (evaluation grade 0-5) (blackgrass [18]; [27]): 5 (Herbicidal rate of 90% or more (almost completely withered)); herbicidal effect on K: Italian ryegrass (evaluation grade 0-5) (Italian ryegrass [19]; [27]): 3 (Herbicidal rate of 40% or more and less than 70%); herbicidal effect on L: windgrass (evaluation grade 0-5) (windgrass [20]; [27]): 5 (Herbicidal rate of 90% or more (almost completely withered)); herbicidal effect on M: velvetleaf (evaluation grade 0-5) (velvetleaf [21]; [27]): 4 (Herbicidal rate of 70% or more and less than 90%); herbicidal effect on N: redroot pigweed (evaluation grade 0-5) (redroot pigweed [22]; [27]): 3 (Herbicidal rate of 40% or more and less than 70%); herbicidal effect on O: lambsquarters (evaluation grade 0-5) (lambsquarters [23]; [27]): 4 (Herbicidal rate of 70% or more and less than 90%); herbicidal effect on P: chickweed (evaluation grade 0-5) (chickweed [24]; [27]): 0 (Herbicidal rate of 5% or less (almost no effect)); herbicidal effect on R: persian speedwell (evaluation grade 0-5) (persian speedwell [25]; [27]): 4 (Herbicidal rate of 70% or more and less than 90%)
